In patent US4770998A, “Biochemical assay of aldehydes” (Mobil Oil Corporation, priority 1985, dated 1988):

Tests used:
[1] = test system: Mouse lymphoma L5178Y cells (clone 3.7.2C); assay: Mouse lymphoma mutagenicity assay (TK locus) with total growth, with S-9 activation, with FDH plus NAD; details: 2.5 and 5.0 ug/ml
Procedure: Mouse lymphoma L5178Y cells (clone 3.7.2C) ATCC CRL 9518 are preferred since these indicator cells are useful for mutagenicity as well as for toxicity assay.
The L5178Y mouse lymphoma indicator cells (clone 3.7.2C) are stored in liquid nitrogen. Cultures are thawed and are maintained in logarithmic growth by serial subculturing for up to six weeks. Cultures are grown at 37° C. in either a shaker incubator or a roller-harvester incubator. […] Cultures are cleansed on a weekly basis, as described by Clive et al. (1979), to reduce the frequency of spontaneous TK-/- mutants and thus maintain minimum mutant frequencies in the negative controls.
The medium for suspension culture of the cells is Fischer's medium (for leukemic mice) supplemented with heat-inactivated horse serum (10%, v/v), sodium pyruvate (1 mM) and Pluronic (0.1%, w/v). […]
Logarithmically growing cultures of recently cleansed lymphoma cells are counted and adjusted to 1×10^6 cells/ml for use in the assays. […]
An expression period of 2 days is used to allow recovery, growth and expression of the TK-/- phenotype. Cell population densities will be determined on Day 1 (approximately 24 hours after treatment) and is adjusted to 3×10^5 cells/ml to maintain optimal growth rates. Cell population densities are then determined on Day 2 (approximately 44 hours after treatment), and appropriated cultures selected for mutant analysis. […]

[2] = test system: Mouse lymphoma L5178Y cells (clone 3.7.2C); assay: Mouse lymphoma mutagenicity assay (TK locus) with total growth, nonactivated (without S-9), with and without FDH plus NAD; format: cell-based
Procedure: All tests preferably are performed in duplicate.
In this example the dose-dependent mutagenic effect of formaldehyde on lymphoma cultures, both with and without FDH plus NAD, was investigated in the absence of S-9 activation.

[3] = known stoichiometric release; cited from earlier work

Cc1c2ccccc2c(C)c2c1ccc1ccccc12 [DMBA, 7,12-dimethylbenz[a]anthracene]
reduction of mutagenicity with addition of FDH plus NAD [1]: No reduction of toxicity or mutagencity
reduction of toxicity with addition of FDH plus NAD [1]: No reduction of toxicity or mutagencity

CCOS(C)(=O)=O [EMS, ethylmethane sulfonate]
reduction of mutagenicity with addition of FDH plus NAD ([2]; 0.5 and 1.0 ul/ml, without S-9): No reduction of toxicity or mutagenicity
reduction of toxicity with addition of FDH plus NAD ([2]; 0.5 and 1.0 ul/ml, without S-9): No reduction of toxicity or mutagenicity

O=[N+]([O-])C(CO)(CO)CO [TNM, Tris-(hydroxymethyl) nitromethane]
total growth / toxicity [2]: Dose dependent increases in toxicity and mutagenicity
toxicity with FDH and NAD [2]: absent
mutagenicity with FDH and NAD ([2]; supplemented with FDH and NAD, without S-9): absent
mutant frequency / mutagenicity ([2]; without FDH/NAD, without S-9): Dose dependent increases in toxicity and mutagenicity
formaldehyde released [3]: 3 mols of formaldehyde per mol of TNM
